Values of other authors, collected in patent US5320960A, “Method of preparing solution enriched in xylanase using low molecular weight alcohol, organic salt and inorganic salt” (Genencor International, Inc., priority 1992, dated 1994).
pKi: −log10 of the molar value.

Target: β-Glucosidase (BG) components of fungal cellulase
Conditions: competitive inhibition; read-out: Ki (glucose)

SMILES: OC[C@H]1OC(O)[C@H](O)[C@@H](O)[C@@H]1O (stereo partly shown) [glucose]
- pKi: ~3.00
